The experiment has as its target T1, human TPO receptor (hTPOR) (Homo sapiens, UniProt P40238).
T1 construct: expressed in transfected cells; host or cells: BaF-B03 (murine IL-3 dependent cell line)
T1 sequence (P40238 26-635): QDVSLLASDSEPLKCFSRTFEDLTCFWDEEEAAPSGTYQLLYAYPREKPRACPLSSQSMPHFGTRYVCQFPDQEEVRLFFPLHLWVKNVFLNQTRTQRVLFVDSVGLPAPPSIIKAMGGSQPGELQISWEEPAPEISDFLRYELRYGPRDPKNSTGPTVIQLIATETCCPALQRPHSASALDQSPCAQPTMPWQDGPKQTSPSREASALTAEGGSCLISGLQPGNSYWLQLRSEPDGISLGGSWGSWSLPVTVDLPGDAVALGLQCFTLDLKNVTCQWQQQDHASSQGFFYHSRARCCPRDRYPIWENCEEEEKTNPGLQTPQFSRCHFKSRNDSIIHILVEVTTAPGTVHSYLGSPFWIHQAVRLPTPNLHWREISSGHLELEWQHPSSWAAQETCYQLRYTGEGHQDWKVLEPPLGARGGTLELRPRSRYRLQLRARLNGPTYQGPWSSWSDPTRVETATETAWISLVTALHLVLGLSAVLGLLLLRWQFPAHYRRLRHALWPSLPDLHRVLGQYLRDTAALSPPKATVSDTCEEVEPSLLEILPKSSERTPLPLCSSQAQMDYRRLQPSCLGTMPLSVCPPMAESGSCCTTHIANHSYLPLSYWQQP
Description: Proliferation of TPO dependent BaF/hTPOR cells, WST-1, thrombopoietic activity ED50 (Test Example 3). As to conditions: 20 h incubation then WST-1 4 h, absorbance at 450 nm. The class given is cell-based. The source says:
FIG. 2: The chart represents proliferation of the human TPO dependent cells bearing human TPO receptors by the present invention compound, wherein the x-axis is concentration of the present invention compound, and the y-axis is the absorbance as an indicator of cell proliferation. Open circles indicate a response of human TPO, and closed circles indicate a response of the compound (B-1).
The TPO dependent BaF/hTPOR cell line which was established by introducing human TPO receptor (hTPOR) into BaF-B03 cells according to Collins et al (J. Cell. Physiol., 137:293-298 (1988)) was used to test the thrombopoietic activity of the present compound. The DNA sequences and encoded peptide sequences for human hTPOR have been described by Vigon et al (Proc. Natl. Acad. Sci. USA, 89:5640-5644 (1992)). TPO dose not have any ability to support proliferation of interleukin-3 dependent parental cell line BaF-B03. BAF/hTPOR cells were maintained in RPMI medium and WEHI-3B conditioned medium as a source of murine interleukin-3 (IL-3). These cells were washed and resuspended in RPMI medium without a source of murine IL-3 and seeded into each well of 96-well microtiter plates at a density of 5×10^4 cells per well in the absence or presence of various concentration of hTPO or the present compound. After incubation at 37° C. for 20 hours in the 5% CO2 incubator, 10% WST-1 reagent (Takara Biomedicals, Japan) was added to each wells and the cells were further incubated for 4 hours. Effect of the present compound on the growth of BAF/mTPOR cell line which was established by introducing murine TPO receptor (mTPOR) into BAF-B03 cells is shown in FIG. 3. Table 8 exemplifies the ED50 for tested compounds of the present invention, wherein the ED50 is the half concentration of the concentration showing the maximum thrombopoietic activity.
In general terms: Formazan colour is commonly taken as a measure of viable cells.

The EC50 is the concentration giving half of the maximal effect. Low values mean greater potency, high ones weaker potency. `O=C(O)/C(Cl)=C/c1ccc(C(=O)Nc2nc(-c3ccc(Br)cc3F)cs2)cc1` [Compound A-69] gave an EC50 of 71 nM. That is a double-digit nanomolar value. With `Cc1ccc(-c2csc(NC(=O)c3ccc(/C=C(\Cl)C(=O)O)cc3)n2)c(F)c1` [Compound A-70], a half-maximal response (EC50) required 89 nM. Next, `O=C(O)/C(Cl)=C/c1ccc(C(=O)Nc2nc(-c3cccc(F)c3F)cs2)cc1` [Compound A-72]: 119 nM; `O=C(O)/C(Cl)=C/c1ccc(C(=O)Nc2nc(-c3ccc4c(c3)CCC4)cs2)cc1` [Compound A-73]: 75 nM. Compound `O=C(O)/C(Cl)=C/c1ccc(C(=O)Nc2nc(-c3ccc4c(c3)CCO4)cs2)cc1` [Compound A-74] had an EC50 of 472 nM.

The compound `O=C(O)/C(Cl)=C/c1ccc(C(=O)Nc2nc(-c3ccc(F)c(Cl)c3)cs2)cc1` [Compound A-75] had an EC50 of 73 nM. For `O=C(O)/C(Cl)=C/c1ccc(C(=O)Nc2nc(-c3ccc(OC(F)(F)F)cc3)cs2)cc1` [Compound A-76], the EC50 was 205 nM. Next, `O=C(O)/C(Cl)=C/c1ccc(C(=O)Nc2nc(-c3cc(F)c(F)c(F)c3F)cs2)cc1` [Compound A-77]: 110 nM; `CSc1ccc(-c2csc(NC(=O)c3ccc(/C=C(\Cl)C(=O)O)cc3)n2)cc1` [Compound A-78]: 408 nM; `O=C(O)/C(Cl)=C/c1ccc(C(=O)Nc2nc(-c3cc(C(F)(F)F)ccc3F)cs2)cc1` [Compound A-79]: 410 nM.

Compound `O=C(O)/C(Cl)=C/c1ccc(C(=O)Nc2nc(-c3cccc(-c4ccccc4)c3F)cs2)cc1` [Compound A-80] gave an EC50 of 66 nM. Compared with the last compound, the EC50 is about 6.2-fold lower. For the compound `O=C(O)/C(Cl)=C/c1ccc(C(=O)Nc2nc(-c3cccc(Br)c3F)cs2)cc1` [Compound A-81], the EC50 is 71 nM.

Compound `COc1cccc(-c2csc(NC(=O)c3ccc(/C=C(\Cl)C(=O)O)cc3)n2)c1F` [Compound A-82] registered an EC50 of 199 nM. Next, `Cc1cccc(-c2csc(NC(=O)c3ccc(/C=C(\Cl)C(=O)O)cc3)n2)c1F` [Compound A-83]: 77 nM; `CCCCCc1cccc(-c2csc(NC(=O)c3ccc(/C=C(\Cl)C(=O)O)cc3)n2)c1F` [Compound A-84]: 23 nM. Next, `O=C(O)/C(Cl)=C/c1ccc(C(=O)Nc2nc(-c3ccc(F)c(Br)c3F)cs2)cc1` [Compound A-86]: 243 nM; `Cc1ccc(C)c(-c2csc(NC(=O)c3ccc(/C=C(\Cl)C(=O)O)cc3)n2)c1` [Compound A-87]: 710 nM. In the case of `O=C(O)/C(Cl)=C/c1ccc(C(=O)Nc2nc(-c3cccc(-c4ccc(F)cc4)c3F)cs2)cc1` [Compound A-88] it was 28 nM. In turn, `O=C(O)/C(Cl)=C/c1ccc(C(=O)Nc2nc(-c3ccc(F)c(-c4ccccc4)c3F)cs2)cc1` [Compound A-89] returned a concentration giving a half-maximal response (EC50) of 72 nM. This EC50 is about 2.6-fold higher than that of the compound before. Next, `O=C(O)/C(Cl)=C/c1ccc(C(=O)Nc2nc(-c3cccc(Cl)c3Cl)cs2)cc1` [Compound A-91]: 76 nM. Next, `CCCCCCc1cccc(-c2csc(NC(=O)c3ccc(/C=C(\Cl)C(=O)O)cc3)n2)c1F` [Compound A-93]: 8 nM.

In the case of `NC(=O)/C=C/c1ccc(C(=O)Nc2nc(-c3ccc(Cl)c(Cl)c3)cs2)cc1` [Compound B-2], the midpoint of the response, the EC50, lay at 257 nM. With `CNC(=O)/C=C/c1ccc(C(=O)Nc2nc(-c3ccc(Cl)c(Cl)c3)cs2)cc1` [Compound B-3], it took 156 nM to reach a half-maximal effect (EC50). Next, `CNC(=O)C(C)=Cc1ccc(C(=O)Nc2nc(-c3ccc(Cl)c(Cl)c3)cs2)cc1` [Compound B-4]: 89 nM. In the case of `CC(=Cc1ccc(C(=O)Nc2nc(-c3ccc(Cl)c(Cl)c3)cs2)cc1)C(=O)N(C)C` [Compound B-5] it was 123 nM.

In turn, `CCNC(=O)C(C)=Cc1ccc(C(=O)Nc2nc(-c3ccc(Cl)c(Cl)c3)cs2)cc1` [Compound B-6] registered a concentration giving a half-maximal response (EC50) of 84 nM. The EC50 values of the last two compounds are within 1.5-fold of each other.

`CCCNC(=O)C(C)=Cc1ccc(C(=O)Nc2nc(-c3ccc(Cl)c(Cl)c3)cs2)cc1` [Compound B-7] returned an EC50 of 59 nM. In the case of `CC(=Cc1ccc(C(=O)Nc2nc(-c3ccc(Cl)c(Cl)c3)cs2)cc1)C(=O)N1CCOCC1` [Compound B-8] it was 378 nM; in that of `C/C(=C\c1ccc(C(=O)Nc2nc(-c3ccc(Cl)c(Cl)c3)cs2)cc1)C(=O)NCc1ccccc1` [Compound B-9], 82 nM; in that of `C/C(=C\c1ccc(C(=O)Nc2nc(-c3ccc(Cl)c(Cl)c3)cs2)cc1)C(=O)Nc1nccs1` [Compound B-11], 236 nM. In the case of `C/C(=C\c1ccc(C(=O)Nc2nc(-c3ccc(Cl)c(Cl)c3)cs2)cc1)C(=O)Nc1cccnc1` [Compound B-12] it was 207 nM. Next, `C/C(=C\c1ccc(C(=O)Nc2nc(-c3ccc(Cl)c(Cl)c3)cs2)cc1)C(=O)NCc1ccc(C(F)(F)F)cc1` [Compound B-13]: 213 nM; `C/C(=C\c1ccc(C(=O)Nc2nc(-c3ccc(Cl)c(Cl)c3)cs2)cc1)C(=O)NCc1ccc(F)cc1` [Compound B-14]: 305 nM; `C/C(=C\c1ccc(C(=O)Nc2nc(-c3ccc(Cl)c(Cl)c3)cs2)cc1)C(=O)NCc1cccs1` [Compound B-15]: 197 nM. `C/C(=C\c1ccc(C(=O)Nc2nc(-c3ccc(Cl)c(Cl)c3)cs2)cc1)C(=O)NCc1ccco1` [Compound B-16]: the EC50 was 182 nM. Regarding `CC/C(=C\c1ccc(C(=O)Nc2nc(-c3ccc(Cl)c(Cl)c3)cs2)cc1)C(N)=O` [Compound B-17], the 50% effective concentration (EC50) amounted to 244 nM. `CC/C(=C\c1ccc(C(=O)Nc2nc(-c3ccc(Cl)c(Cl)c3)cs2)cc1)C(=O)NC` [Compound B-18] gave an EC50 of 150 nM. `CCNC(=O)/C(=C/c1ccc(C(=O)Nc2nc(-c3ccc(Cl)c(Cl)c3)cs2)cc1)CC` [Compound B-19] registered an EC50 of 150 nM. Next, `CC/C(=C\c1ccc(C(=O)Nc2nc(-c3ccc(Cl)c(Cl)c3)cs2)cc1)C(=O)NCc1ccccc1` [Compound B-20]: 425 nM; `C/C(=C\c1ccc(C(=O)Nc2nc(-c3ccc(F)c(F)c3)cs2)cc1)C(N)=O` [Compound B-25]: 367 nM; `CNC(=O)/C(C)=C/c1ccc(C(=O)Nc2nc(-c3ccc(F)c(F)c3)cs2)cc1` [Compound B-26]: 346 nM. In turn, `C/C(=C\c1ccc(C(=O)Nc2nc(-c3ccc(Cl)c(Cl)c3)cs2)cc1)C(=O)NCCN(C)C` [Compound B-27] displayed an EC50 of 707 nM. Against the preceding compound, the EC50 is about 2-fold higher. `C/C(=C\c1ccc(C(=O)Nc2nc(-c3ccc(Cl)c(Cl)c3)cs2)cc1)C(=O)NCCC(=O)O` [Compound B-28] returned a concentration for a half-maximal effect (EC50) of 565 nM. Next, `C/C(=C\c1ccc(C(=O)Nc2nc(-c3ccc(Cl)c(Cl)c3)cs2)cc1)C(=O)NN(C)C` [Compound B-29]: 181 nM; `C/C(=C\c1ccc(C(=O)Nc2nc(-c3ccc(Cl)c(Cl)c3)cs2)cc1)C(=O)Nc1ccccc1` [Compound B-30]: 177 nM; `C/C(=C\c1ccc(C(=O)Nc2nc(-c3ccc(Cl)c(Cl)c3)cs2)cc1)C(=O)NCC(F)(F)F` [Compound B-31]: 178 nM.

In the case of `CSCCCNC(=O)/C(C)=C/c1ccc(C(=O)Nc2nc(-c3ccc(Cl)c(Cl)c3)cs2)cc1` [Compound B-32], the concentration giving a half-maximal response (EC50) is 123 nM.

`C/C(=C\c1ccc(C(=O)Nc2nc(-c3ccc(Cl)c(Cl)c3)cs2)cc1)C(=O)NC(C)c1ccccc1` (centres unmarked) [Compound B-33] registered an EC50 of 372 nM.

Compound `C/C(=C\c1ccc(C(=O)Nc2nc(-c3ccc(Cl)c(Cl)c3)cs2)cc1)C(=O)NC[Si](C)(C)C` [Compound B-34] came in with an EC50 of 398 nM. Next, `C/C(=C\c1ccc(C(=O)Nc2nc(-c3ccc(Cl)c(Cl)c3)cs2)cc1)C(=O)NC1CC1` [Compound B-36]: 163 nM.

The compound `C/C(=C\c1ccc(C(=O)Nc2nc(-c3ccc(Cl)c(Cl)c3)cs2)cc1)C(=O)NC1CCCC1` [Compound B-38] had an EC50 of 239 nM. `C/C(=C\c1ccc(C(=O)Nc2nc(-c3ccc(Cl)c(Cl)c3)cs2)cc1)C(=O)NC(C)(C)C` [Compound B-39]: a half-maximal effect (EC50) was put at 729 nM. Compared with the last compound, the EC50 is about 3.1-fold higher. In the case of `C#CCNC(=O)/C(C)=C/c1ccc(C(=O)Nc2nc(-c3ccc(Cl)c(Cl)c3)cs2)cc1` [Compound B-40] it was 201 nM.

Source of the values: patent publication US20100022542A1, “COMPOUNDS EXHIBITING THROMBOPOIETIN RECEPTOR AGONISM” (Shionogi & Co., Ltd., priority 2000, published 2010).
